Tested on: WT Mtb Erdman strain
Assay: Microplate Alamar Blue Assay (MABA), Mtb growth inhibition
Format: cell-based, Mycobacterium tuberculosis
Conditions: Middlebrook 7H9 media, 7 days at 37° C. in 5% CO2
[1] = Mycobacterium tuberculosis, ERDMAN, 168 h

| SMILES | IC50 [1] [µM] | IC50 [µM] |
| --- | --- | --- |
| Cc1cc2c(NCCCc3ccc(-c4ccc(OC(F)(F)F)cn4)cc3)nc(-c3ccon3)nc2s1 [Example 459, 2-(isoxazol-3-yl)-6-methyl-N-(3-(4-(5-(trifluoromethoxy)pyridin-2-yl)phenyl)propyl)thieno[2,3-d]pyrimidin-4-amine] | 0.043 |  |
| Cc1nc2c(NCCCc3ccc(-c4cnc(F)cn4)cc3)nc(-c3ccon3)nc2s1 [Example 465, N-(3-[4-(5-fluoropyrazin-2-yl)phenyl]propyl)-2-methyl-5-(1,2-oxazol-3-yl)-[1,3]thiazolo[5,4-d]pyrimidin-7-amine] | 0.18 |  |
| FC(F)(F)Oc1ccc(-c2ccc(CCCNc3nc(Cl)nc4sccc34)cc2)cc1 [Example 467, 2-chloro-N-(3-(4′-(trifluoromethoxy)-[1,1′-biphenyl]-4-yl)propyl)thieno[2,3-d]pyrimidin-4-amine] | 0.2 |  |
| FC(F)(F)Oc1ccc(-c2ccc(CCCNc3nc(Cl)nc4scnc34)cc2)cc1 [Example 468, 5-chloro-N-(3-(4′-(trifluoromethoxy)-[1,1′-biphenyl]-4-yl)propyl)thiazolo[5,4-d]pyrimidin-7-amine] | 0.69 |  |
| Cc1cc2c(NCCCc3ccc(-c4cnc(F)cn4)cc3)nc(Cl)nc2s1 [Example 469, 2-chloro-N-(3-(4-(5-fluoropyrazin-2-yl)phenyl)propyl)-6-methylthieno[2,3-d]pyrimidin-4-amine] | 0.17 |  |
| Cc1nc2c(NCCCc3ccc(-c4cnc(F)cn4)cc3)nc(Cl)nc2s1 [Example 470, 5-chloro-N-(3-(4-(5-fluoropyrazin-2-yl)phenyl)propyl)-2-methylthiazolo[5,4-d]pyrimidin-7-amine] | 0.33 |  |
| Cc1cc2c(N[C@@H]3C[C@H]3c3ccc(F)c(F)c3)nc(-c3ccc(=O)[nH]c3)nc2s1 [Example 490, 5-(4-(((1R,2S)-2-(3,4-difluorophenyl)cyclopropyl)amino)-6-methylthieno[2,3-d]pyrimidin-2-yl)pyridin-2(1H)-one] | 4.7 | > 9.1 |
| Cc1cc2c(N[C@@H]3C[C@H]3c3ccc(F)c(F)c3)nc(-c3ccnc(N(C)C)c3)nc2s1 [Example 491, N-((1R,2S)-2-(3,4-difluorophenyl)cyclopropyl)-2-(2-(dimethylamino)pyridin-4-yl)-6-methylthieno[2,3-d]pyrimidin-4-amine] | 4.4 |  |
| Cc1cc2c(N[C@@H]3C[C@H]3c3ccc(F)c(F)c3)nc(-c3ccc(S(C)(=O)=O)cc3)nc2s1 [Example 492, N-((1R,2S)-2-(3,4-difluorophenyl)cyclopropyl)-6-methyl-2-(4-(methylsulfonyl)phenyl)thieno[2,3-d]pyrimidin-4-amine] | > 10 |  |
| Cc1cc2c(N[C@@H]3C[C@H]3c3ccc(F)c(F)c3)nc(-c3cncnc3)nc2s1 [Example 493, N-((1R,2S)-2-(3,4-difluorophenyl)cyclopropyl)-6-methyl-2-(pyrimidin-5-yl)thieno[2,3-d]pyrimidin-4-amine] | > 10 |  |
| CNS(=O)(=O)c1ccccc1-c1nc(N[C@@H]2C[C@H]2c2ccc(F)c(F)c2)c2cc(C)sc2n1 [Example 494, 2-(4-(((1R,2S)-2-(3,4-difluorophenyl)cyclopropyl)amino)-6-methylthieno[2,3-d]pyrimidin-2-yl)-N-methylbenzenesulfonamide] | > 10 |  |
| Cc1cc2c(N[C@@H]3C[C@H]3c3ccc(F)c(F)c3)nc(-c3ccccc3O)nc2s1 [Example 495, 2-(4-(((1R,2S)-2-(3,4-difluorophenyl)cyclopropyl)amino)-6-methylthieno[2,3-d]pyrimidin-2-yl)phenol] | > 10 |  |
| COc1ccccc1-c1nc(N[C@@H]2C[C@H]2c2ccc(F)c(F)c2)c2cc(C)sc2n1 [Example 496, N-((1R,2S)-2-(3,4-difluorophenyl)cyclopropyl)-2-(2-methoxyphenyl)-6-methylthieno[2,3-d]pyrimidin-4-amine] | > 10 |  |
| Cc1cc2c(N[C@@H]3C[C@H]3c3ccc(F)c(F)c3)nc(-c3ccc(O)cc3)nc2s1 [Example 497, 4-(4-(((1R,2S)-2-(3,4-difluorophenyl)cyclopropyl)amino)-6-methylthieno[2,3-d]pyrimidin-2-yl)phenol] | > 10 |  |
| COc1ccc(-c2nc(N[C@@H]3C[C@H]3c3ccc(F)c(F)c3)c3cc(C)sc3n2)cc1 [Example 498, N-((1R,2S)-2-(3,4-difluorophenyl)cyclopropyl)-2-(4-methoxyphenyl)-6-methylthieno[2,3-d]pyrimidin-4-amine] | 4.1 |  |
| Cc1cc2c(N[C@@H]3C[C@H]3c3ccc(F)c(F)c3)nc(-c3ccc(F)cc3F)nc2s1 [Example 499, 2-(2,4-difluorophenyl)-N-((1R,2S)-2-(3,4-difluorophenyl)cyclopropyl)-6-methylthieno[2,3-d]pyrimidin-4-amine] | 3.4 |  |
| Cc1cc2c(N[C@@H]3C[C@H]3c3ccc(F)c(F)c3)nc(-c3ccc(F)c(F)c3)nc2s1 [Example 500, 2-(3,4-difluorophenyl)-N-((1R,2S)-2-(3,4-difluorophenyl)cyclopropyl)-6-methylthieno[2,3-d]pyrimidin-4-amine] | 3.6 |  |
| Cc1cc2c(N[C@@H]3C[C@H]3c3ccc(F)c(F)c3)nc(-c3cccc(N(C)C)c3)nc2s1 [Example 501, N-((1R,2S)-2-(3,4-difluorophenyl)cyclopropyl)-2-(3-(dimethylamino)phenyl)-6-methylthieno[2,3-d]pyrimidin-4-amine] | > 10 |  |
| C=Cc1nc(NCCCc2ccc(-c3ccc(OC(F)(F)F)cc3)cc2)c2cc(C)sc2n1 [Example 502, 2-ethenyl-6-methyl-N-(3-[4′-(trifluoromethoxy)-[1,1′-biphenyl]-4-yl]propyl)thieno[2,3-d]pyrimidin-4-amine] | 0.006 |  |

| SMILES | IC50 [1] [µM] | IC50 [µM] |
| --- | --- | --- |
| c1ccc(CCCNc2nc(N3CCOCC3)nc3sccc23)cc1 [Example 504, 2-morpholino-N-(3-phenylpropyl)thieno[2,3-d]pyrimidin-4-amine] | > 10 |  |
| c1ccc(CCCNc2nc(NC3CC3)nc3sccc23)cc1 [Example 505, N2-cyclopropyl-N4-(3-phenylpropyl)thieno[2,3-d]pyrimidine-2,4-diamine] | 9.1 |  |
| Cc1cc2c(NCCCc3ccc(OC(F)(F)F)cc3)nc(N3CCCC3)nc2s1 [Example 506, 6-methyl-2-(pyrrolidin-1-yl)-N-(3-(4-(trifluoromethoxy)phenyl)propyl)thieno[2,3-d]pyrimidin-4-amine] | 0.12 |  |
| Cc1cc2c(NCCCc3ccccc3)nc(N3CCSCC3)nc2s1 [Example 507, 6-methyl-N-(3-phenylpropyl)-2-thiomorpholinothieno[2,3-d]pyrimidin-4-amine] | > 10 |  |
| Cc1cc2c(NCCCc3ccccc3)nc(N3CCN(C)CC3)nc2s1 [Example 508, 6-methyl-2-(4-methylpiperazin-1-yl)-N-(3-phenylpropyl)thieno[2,3-d]pyrimidin-4-amine] | > 10 |  |
| Cc1cc2c(NCCCc3ccccc3)nc(N3CCC3)nc2s1 [Example 510, 2-(azetidin-1-yl)-6-methyl-N-(3-phenylpropyl)thieno[2,3-d]pyrimidin-4-amine] | 0.11 |  |
| Cc1cc2c(NCCCc3ccccc3)nc(N3CC(F)(F)C3)nc2s1 [Example 511, 2-(3,3-difluoroazetidin-1-yl)-6-methyl-N-(3-phenylpropyl)thieno[2,3-d]pyrimidin-4-amine] | 0.57 |  |
| Cc1cc2c(NCCCc3ccccc3)nc(N3CC(F)C3)nc2s1 [Example 512, 2-(3-fluoroazetidin-1-yl)-6-methyl-N-(3-phenylpropyl)thieno[2,3-d]pyrimidin-4-amine] | 0.61 |  |
| Cc1cc2c(NCCCc3ccccc3)nc(N3CCC(F)(F)C3)nc2s1 [Example 513, 2-(3,3-difluoropyrrolidin-1-yl)-6-methyl-N-(3-phenylpropyl)thieno[2,3-d]pyrimidin-4-amine] | 0.23 |  |
| Cc1cc2c(NCCCc3ccccc3)nc(N3CCC[C@H]3C)nc2s1 [Example 514, (R)-6-methyl-2-(2-methylpyrrolidin-1-yl)-N-(3-phenylpropyl)thieno[2,3-d]pyrimidin-4-amine] | 7 |  |
| Cc1cc2c(NCCCc3ccccc3)nc(N3CCC(F)(F)CC3)nc2s1 [Example 515, 2-(4,4-difluoropiperidin-1-yl)-6-methyl-N-(3-phenylpropyl)thieno[2,3-d]pyrimidin-4-amine] | > 10 |  |
| Cc1cc2c(NCCCc3ccccc3)nc(N3CCCC3)nc2s1 [Example 516, 6-methyl-N-(3-phenylpropyl)-2-(pyrrolidin-1-yl)thieno[2,3-d]pyrimidin-4-amine] | 0.11 |  |
| Cc1cc2c(NCCCc3ccccc3)nc(N3CCCCC3)nc2s1 [Example 517, 6-methyl-N-(3-phenylpropyl)-2-(piperidin-1-yl)thieno[2,3-d]pyrimidin-4-amine] | 3.1 |  |
| COC1CN(c2nc(NCCCc3ccccc3)c3cc(C)sc3n2)C1 [Example 518, 2-(3-methoxyazetidin-1-yl)-6-methyl-N-(3-phenylpropyl)thieno[2,3-d]pyrimidin-4-amine] | 1.9 |  |
| Cc1cc2c(NCCCc3ccccc3)nc(N3CCSC3)nc2s1 [Example 519, 6-methyl-N-(3-phenylpropyl)-2-(thiazolidin-3-yl)thieno[2,3-d]pyrimidin-4-amine] | 0.9 |  |
| CCN(CC)c1nc(NCCCc2ccccc2)c2cc(C)sc2n1 [Example 520, N2,N2-diethyl-6-methyl-N4-(3-phenylpropyl)thieno[2,3-d]pyrimidine-2,4-diamine] | > 10 |  |
| CNc1nc(NCCCc2ccccc2)c2cc(C)sc2n1 [Example 521, N2,6-dimethyl-N4-(3-phenylpropyl)thieno[2,3-d]pyrimidine-2,4-diamine] | 0.25 |  |
| Cc1cc2c(NCCCc3ccccc3)nc(NC3CC3)nc2s1 [Example 522, N2-cyclopropyl-6-methyl-N4-(3-phenylpropyl)thieno[2,3-d]pyrimidine-2,4-diamine] | 4.2 |  |
| Cc1cc2c(N[C@@H]3C[C@H]3c3ccc(F)c(F)c3)nc(N3CCC(F)(F)C3)nc2s1 [Example 523, N-((1R,2S)-2-(3,4-difluorophenyl)cyclopropyl)-2-(3,3-difluoropyrrolidin-1-yl)-6-methylthieno[2,3-d]pyrimidin-4-amine] | 4.5 |  |

— patent publication US20240279236A1, “COMPOUNDS AND METHODS OF TREATING TUBERCULOSIS” (Fimbrion Therapeutics, Inc., priority 2021, published 2024)
